Test results published in the supplement of paper PMC10307832.

Experiments:
Experiment in all cases: relative viability (nuclei count vs DMSO), 5 days (fraction); higher = more cells survive
NCI-H661 = system: NCI-H661
Procedure, shortened: (§1)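 Medians of duplicate plates are given as relative viability. That measure is the nuclei count in treated wells divided by the count in vehicle wells. Counts were taken on 4× images of lung cancer cell lines in 1536-well plates, 5 days after pin-tool dosing the day after seeding with one drug alone or a fixed anchor-drug dose plus five library-drug doses (not always all listed) in √10 steps.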

NCI-H2228 = system: NCI-H2228
Procedure, shortened: as §1

RERF-LC-KJ = system: RERF-LC-KJ
Procedure, shortened: as §1

NCI-H1755 = system: NCI-H1755
Procedure, shortened: as §1

NCI-H1734 = system: NCI-H1734
Procedure, shortened: as §1

NCI-H520 = system: NCI-H520
Procedure, shortened: as §1

NCI-H1563 = system: NCI-H1563
Procedure, shortened: as §1

HCC-827 = system: HCC-827
Procedure, shortened: as §1

NCI-H1355 = system: NCI-H1355
Procedure, shortened: as §1

LCLC-97TM1 = system: LCLC-97TM1
Procedure, shortened: as §1

HCC-15 = system: HCC-15
Procedure, shortened: as §1

H3255 = system: H3255
Procedure, shortened: as §1

CAL-12T = system: CAL-12T
Procedure, shortened: as §1

PC-3 [JPC-3] = system: PC-3 [JPC-3]
Procedure, shortened: as §1

LK-2 = system: LK-2
Procedure, shortened: as §1

EKVX = system: EKVX
Procedure, shortened: as §1

NCI-H2405 = system: NCI-H2405
Procedure, shortened: as §1

NCI-H322M = system: NCI-H322M
Procedure, shortened: as §1

PC-14 = system: PC-14
Procedure, shortened: as §1

NCI-H1975 = system: NCI-H1975
Procedure, shortened: as §1

How did the relative viability (NCI-H661; first compound 0.01 µM) turn out when CCN(CC)CCCCNc1ncc2cc(-c3cc(OC)cc(OC)c3)c(NC(=O)NC(C)(C)C)nc2n1 + C[C@]1(O)C[C@@H](c2nc(-c3ccc4ccc(-c5ccccc5)nc4c3)c3c(N)nccn32)C1 [Linsitinib] (partner 1 µM) was run?
The relative viability was 0.568.

And the relative viability (NCI-H661; first compound 0.03162 µM)?
The relative viability was 0.45.

And the relative viability (NCI-H661; first compound 0.1 µM)?
The relative viability was 0.58.

What about the relative viability (NCI-H661; first compound 0.3162 µM) of the same compound?
Its relative viability is 0.61.

What about the relative viability (NCI-H661; first compound 1 µM) of the same compound?
The relative viability was 0.535.

What about the relative viability (NCI-H2228; first compound 0.01 µM) of the same compound?
Its relative viability is 0.741.

What about the relative viability (NCI-H2228; first compound 0.03162 µM) of the same compound?
Its relative viability is 0.834.

And the relative viability (NCI-H2228; first compound 0.1 µM)?
The relative viability was 0.872.

And the relative viability (NCI-H2228; first compound 0.3162 µM)?
The relative viability was 1.07.

And the relative viability (NCI-H2228; first compound 1 µM)?
The relative viability was 0.635.

What about the relative viability (RERF-LC-KJ; first compound 0.01 µM) of the same compound?
The relative viability was 0.891.

What about the relative viability (RERF-LC-KJ; first compound 0.03162 µM) of the same compound?
Its relative viability is 0.961.

And the relative viability (RERF-LC-KJ; first compound 0.1 µM)?
The relative viability was 1.04.

And the relative viability (RERF-LC-KJ; first compound 0.3162 µM)?
Its relative viability is 1.01.

And the relative viability (RERF-LC-KJ; first compound 1 µM)?
Its relative viability is 0.887.

And the relative viability (NCI-H1755; first compound 0.01 µM)?
The relative viability was 1.08.

What about the relative viability (NCI-H1755; first compound 0.03162 µM) of the same compound?
Its relative viability is 0.979.

And the relative viability (NCI-H1755; first compound 0.1 µM)?
The relative viability was 0.995.

What about the relative viability (NCI-H1755; first compound 0.3162 µM) of the same compound?
The relative viability was 1.08.

What about the relative viability (NCI-H1755; first compound 1 µM) of the same compound?
Its relative viability is 0.925.

What about the relative viability (NCI-H1734; first compound 0.01 µM) of the same compound?
Its relative viability is 0.864.

What about the relative viability (NCI-H1734; first compound 0.03162 µM) of the same compound?
The relative viability was 0.923.

And the relative viability (NCI-H1734; first compound 0.1 µM)?
The relative viability was 0.993.

And the relative viability (NCI-H1734; first compound 0.3162 µM)?
Its relative viability is 0.913.

And the relative viability (NCI-H1734; first compound 1 µM)?
Its relative viability is 0.835.

And the relative viability (NCI-H520; first compound 0.01 µM)?
Its relative viability is 0.998.

And the relative viability (NCI-H520; first compound 0.03162 µM)?
Its relative viability is 1.02.

And the relative viability (NCI-H520; first compound 0.1 µM)?
The relative viability was 0.948.

What about the relative viability (NCI-H520; first compound 0.3162 µM) of the same compound?
The relative viability was 0.912.

And the relative viability (NCI-H520; first compound 1 µM)?
Its relative viability is 0.332.

What about the relative viability (NCI-H1563; first compound 0.01 µM) of the same compound?
The relative viability was 1.29.

And the relative viability (NCI-H1563; first compound 0.03162 µM)?
Its relative viability is 1.34.

What about the relative viability (NCI-H1563; first compound 0.1 µM) of the same compound?
The relative viability was 1.13.

What about the relative viability (NCI-H1563; first compound 0.3162 µM) of the same compound?
Its relative viability is 1.09.

And the relative viability (NCI-H1563; first compound 1 µM)?
The relative viability was 0.889.

And the relative viability (HCC-827; first compound 0.01 µM)?
The relative viability was 0.933.

What about the relative viability (HCC-827; first compound 0.03162 µM) of the same compound?
Its relative viability is 0.987.

What about the relative viability (HCC-827; first compound 0.1 µM) of the same compound?
The relative viability was 1.01.

And the relative viability (HCC-827; first compound 0.3162 µM)?
Its relative viability is 0.982.

What about the relative viability (HCC-827; first compound 1 µM) of the same compound?
The relative viability was 0.961.

And the relative viability (NCI-H1355; first compound 0.01 µM)?
Its relative viability is 0.861.

And the relative viability (NCI-H1355; first compound 0.03162 µM)?
The relative viability was 0.887.

What about the relative viability (NCI-H1355; first compound 0.1 µM) of the same compound?
The relative viability was 0.873.

What about the relative viability (NCI-H1355; first compound 0.3162 µM) of the same compound?
The relative viability was 0.898.

And the relative viability (NCI-H1355; first compound 1 µM)?
The relative viability was 0.794.

What about the relative viability (LCLC-97TM1; first compound 0.03162 µM) of the same compound?
The relative viability was 0.176.

And the relative viability (LCLC-97TM1; first compound 0.1 µM)?
The relative viability was 0.23.

And the relative viability (LCLC-97TM1; first compound 0.3162 µM)?
Its relative viability is 0.199.

And the relative viability (LCLC-97TM1; first compound 1 µM)?
The relative viability was 0.216.

What about the relative viability (HCC-15; first compound 0.01 µM) of the same compound?
The relative viability was 1.04.

What about the relative viability (HCC-15; first compound 0.03162 µM) of the same compound?
The relative viability was 0.875.

And the relative viability (HCC-15; first compound 0.1 µM)?
Its relative viability is 0.951.

What about the relative viability (HCC-15; first compound 0.3162 µM) of the same compound?
The relative viability was 0.925.

What about the relative viability (HCC-15; first compound 1 µM) of the same compound?
The relative viability was 0.872.

And the relative viability (H3255; first compound 0.01 µM)?
The relative viability was 1.02.

What about the relative viability (H3255; first compound 0.03162 µM) of the same compound?
Its relative viability is 1.04.

And the relative viability (H3255; first compound 0.1 µM)?
The relative viability was 0.986.

What about the relative viability (H3255; first compound 0.3162 µM) of the same compound?
The relative viability was 1.06.

What about the relative viability (H3255; first compound 1 µM) of the same compound?
The relative viability was 0.892.

What about the relative viability (CAL-12T; first compound 0.01 µM) of the same compound?
The relative viability was 0.873.

What about the relative viability (CAL-12T; first compound 0.03162 µM) of the same compound?
Its relative viability is 0.954.

What about the relative viability (CAL-12T; first compound 0.1 µM) of the same compound?
The relative viability was 0.729.

What about the relative viability (CAL-12T; first compound 0.3162 µM) of the same compound?
Its relative viability is 0.906.

And the relative viability (CAL-12T; first compound 1 µM)?
Its relative viability is 0.844.

What about the relative viability (PC-3 [JPC-3]; first compound 0.01 µM) of the same compound?
The relative viability was 0.999.

And the relative viability (PC-3 [JPC-3]; first compound 0.03162 µM)?
The relative viability was 0.982.

What about the relative viability (PC-3 [JPC-3]; first compound 0.1 µM) of the same compound?
Its relative viability is 0.954.

And the relative viability (PC-3 [JPC-3]; first compound 0.3162 µM)?
Its relative viability is 1.03.

What about the relative viability (PC-3 [JPC-3]; first compound 1 µM) of the same compound?
Its relative viability is 0.993.

What about the relative viability (LK-2; first compound 0.01 µM) of the same compound?
The relative viability was 0.536.

And the relative viability (LK-2; first compound 0.03162 µM)?
The relative viability was 0.339.

And the relative viability (LK-2; first compound 0.1 µM)?
Its relative viability is 0.401.

What about the relative viability (LK-2; first compound 0.3162 µM) of the same compound?
Its relative viability is 0.356.

And the relative viability (LK-2; first compound 1 µM)?
The relative viability was 0.17.

And the relative viability (EKVX; first compound 0.01 µM)?
Its relative viability is 1.11.

What about the relative viability (EKVX; first compound 0.03162 µM) of the same compound?
The relative viability was 1.1.

What about the relative viability (EKVX; first compound 0.1 µM) of the same compound?
The relative viability was 0.93.

What about the relative viability (EKVX; first compound 0.3162 µM) of the same compound?
The relative viability was 1.09.

What about the relative viability (EKVX; first compound 1 µM) of the same compound?
Its relative viability is 0.883.

What about the relative viability (NCI-H2405; first compound 0.01 µM) of the same compound?
The relative viability was 0.76.

What about the relative viability (NCI-H2405; first compound 0.03162 µM) of the same compound?
Its relative viability is 0.862.

And the relative viability (NCI-H2405; first compound 0.1 µM)?
Its relative viability is 0.863.

And the relative viability (NCI-H2405; first compound 0.3162 µM)?
Its relative viability is 1.03.

And the relative viability (NCI-H2405; first compound 1 µM)?
The relative viability was 0.817.

And the relative viability (NCI-H322M; first compound 0.01 µM)?
Its relative viability is 0.99.

What about the relative viability (NCI-H322M; first compound 0.03162 µM) of the same compound?
Its relative viability is 0.875.

What about the relative viability (NCI-H322M; first compound 0.1 µM) of the same compound?
Its relative viability is 0.938.

What about the relative viability (NCI-H322M; first compound 0.3162 µM) of the same compound?
The relative viability was 0.982.

And the relative viability (NCI-H322M; first compound 1 µM)?
Its relative viability is 0.891.

What about the relative viability (PC-14; first compound 0.01 µM) of the same compound?
The relative viability was 1.01.

What about the relative viability (PC-14; first compound 0.03162 µM) of the same compound?
Its relative viability is 1.03.

What about the relative viability (PC-14; first compound 0.1 µM) of the same compound?
The relative viability was 1.02.

And the relative viability (PC-14; first compound 0.3162 µM)?
Its relative viability is 1.09.

What about the relative viability (PC-14; first compound 1 µM) of the same compound?
Its relative viability is 0.885.

What about the relative viability (NCI-H1975; first compound 0.01 µM) of the same compound?
The relative viability was 0.976.

What about the relative viability (NCI-H1975; first compound 0.03162 µM) of the same compound?
The relative viability was 0.949.

What about the relative viability (NCI-H1975; first compound 0.1 µM) of the same compound?
The relative viability was 1.11.

What about the relative viability (NCI-H1975; first compound 0.3162 µM) of the same compound?
Its relative viability is 1.01.

And the relative viability (NCI-H1975; first compound 1 µM)?
Its relative viability is 0.856.
